This note sets out measurements from patent US10442796B2, “2,3,5-substituted thiophene compound as protein kinase inhibitor” (KOREA INSTITUTE OF SCIENCE AND TECHNOLOGY, priority 2016, dated 2019).

Substitutions are numbered along the chain they refer to. Structures can show the parent of a compound that is named as a salt.

Series [1] deals with T1, FLT3-D835Y Ba/F3 cells (Homo sapiens, UniProt P36888, D835Y, cells depend on it).
T1 sequence (P36888 1-993 D835Y): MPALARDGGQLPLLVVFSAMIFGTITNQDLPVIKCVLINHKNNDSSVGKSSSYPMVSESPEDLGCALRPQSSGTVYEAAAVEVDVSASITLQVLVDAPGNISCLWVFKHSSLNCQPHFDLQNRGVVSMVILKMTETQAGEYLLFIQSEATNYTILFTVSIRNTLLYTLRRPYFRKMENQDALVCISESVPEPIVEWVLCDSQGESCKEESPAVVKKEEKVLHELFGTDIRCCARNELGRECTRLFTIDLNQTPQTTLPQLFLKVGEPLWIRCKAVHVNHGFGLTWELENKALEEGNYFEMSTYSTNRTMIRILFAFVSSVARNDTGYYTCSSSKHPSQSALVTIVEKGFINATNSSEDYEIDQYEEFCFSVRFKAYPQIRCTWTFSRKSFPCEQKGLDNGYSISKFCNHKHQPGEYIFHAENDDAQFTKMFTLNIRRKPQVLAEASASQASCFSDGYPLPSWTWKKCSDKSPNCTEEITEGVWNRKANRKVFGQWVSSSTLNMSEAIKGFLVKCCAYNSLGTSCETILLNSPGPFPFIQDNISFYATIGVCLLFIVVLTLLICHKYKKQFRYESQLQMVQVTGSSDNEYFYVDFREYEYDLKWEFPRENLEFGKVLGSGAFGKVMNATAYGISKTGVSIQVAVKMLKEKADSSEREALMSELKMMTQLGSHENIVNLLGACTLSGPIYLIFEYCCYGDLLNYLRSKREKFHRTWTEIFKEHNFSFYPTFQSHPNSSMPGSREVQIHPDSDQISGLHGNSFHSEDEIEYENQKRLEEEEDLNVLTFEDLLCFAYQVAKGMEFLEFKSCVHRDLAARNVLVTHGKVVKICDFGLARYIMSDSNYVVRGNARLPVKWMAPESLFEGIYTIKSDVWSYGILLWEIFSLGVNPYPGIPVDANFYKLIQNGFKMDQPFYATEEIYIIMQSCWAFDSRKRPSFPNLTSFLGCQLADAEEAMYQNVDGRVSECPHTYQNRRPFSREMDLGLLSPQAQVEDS
Briefly: Growth inhibitory activity against Ba/F3 cell line. The conditions noted are these: Ba/F3 expressing FLT3-D835Y; 72 hours; cell titer glo; read-out: IC50 (uM) FLT3-D835Y. It is filed as cell-based. The method in brief: (§1)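 Ba/F3 cells carrying FLT3 mutants grown in RPMI with 10% FBS, exposed 72 h to ten 3-fold dilutions of compound starting from 1 mM DMSO stock. Viability read by CellTiter-Glo luminescence; GI50 fitted from signal versus final concentration.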

In series [2] the target is T2, FLT3-ITD-F691L-D835Y Ba/F3 cells (Homo sapiens, UniProt P36888, F691L/D835Y, cells depend on it, form not given).
T2 sequence (P36888 1-993 F691L/D835Y): T1 sequence (P36888 1-993 D835Y) with F691L
Briefly: Growth inhibitory activity against Ba/F3 cell line. It is filed as cell-based. Conditions: Ba/F3 expressing FLT3-ITD-F691L-D835Y; 72 hours; cell titer glo; read-out: IC50 (uM) FLT3-ITD-F691L-D835Y. The method in brief: as §1

Series [3] in a line: Body weight change during bioluminescent in vivo efficacy study. Also noted: species or system mouse. Conditions: po, qd. The method, then: Each compound was dissolved in NMP at 20× final concentration and diluted to 1× with the remaining vehicle components (vehicle: 5% NMP, 15% solutol (Sigma-aldrich), 30% PEG400 (Sigma-aldrich), 50% 0.05M citric acid (Sigma-aldrich)). Each compound solution was prepared freshly just before administration. Compounds were administered orally using a mouse sondae once a day, 0.1 mL per mouse. Mice were humanely euthanized if animals experience 20% body weight loss.
D-Luciferin (Promega) was dissolved in DPBS (Welgene) (without Ca2+ and Mg2+) at 15 mg/mL, and the stock solution was prepared after filtration using 0.22 μm syringe filters (BD). Luciferin solution (150 mg/kg in DPBS) was injected intraperitoneally into each mouse (200 μL/mouse). After 5 min, mice were anesthetized for 5 min using isoflurane (JW Pharma). Luminescence signal was read using IVIS200 (exposure time: auto, binning: 8, F/stop: 1). Signal intensity and body weights were measured every 3 days to monitor the ROI intensity and treatment-induced body weight loss. […] Data was analyzed using Living Image software (Caliper, PerkinElmer).
Statistical analysis of luminescence signal intensity, mouse body weight, and spleen/body weight ratio were evaluated using two-way ANOVA. Differences were considered statistically significant at p<0.005.

For `NC(=O)Nc1cc(C#Cc2cccc(F)c2)sc1C(=O)N[C@H]1CCCNC1` [Example 22, (S)-5-((3-fluorophenyl)ethynyl)-N-(piperidin-3-yl)-3-ureidothiophene-2-carboxamide], the figures for the GI50 in series [1] and in series [2] were 0.052 µM and < 0.001 µM, respectively. In series [3], the mouse body weight entry was “did not alter the mouse body weight”.
Regarding `Cn1cc(C#Cc2cc(NC(N)=O)c(C(=O)N[C@H]3CCCCNC3)s2)cn1` [Example 41, (S)—N-(azepan-3-yl)-5-((1-methyl-1H-pyrazol-4-yl)ethynyl)-3-ureidothiophene-2-carboxamide trifluoroacetate], the GI50 is 0.092 µM in series [1] and 0.007 µM in series [2].
For `NC(=O)Nc1cc(C#Cc2cn[nH]c2)sc1C(=O)N[C@H]1CCCCNC1` [Example 42, (S)-5-((1H-pyrazol-4-yl)ethynyl)-N-(azepan-3-yl)-3-ureidothiophene-2-carboxamide trifluoroacetate] the same measures were 4.01 µM and 0.116 µM.
The like results for `CCn1cc(C#Cc2cc(NC(N)=O)c(C(=O)N[C@H]3CCCCNC3)s2)cn1` [Example 43, (S)—N-(azepan-3-yl)-5-((l-ethyl-1H-pyrazol-4-yl)ethynyl)-3-ureidothiophene-2-carboxamide trifluoroacetate] were, in that order, 0.3 µM and 0.006 µM.
For `CC(C)n1cc(C#Cc2cc(NC(N)=O)c(C(=O)N[C@H]3CCCCNC3)s2)cn1` [Example 44, (S)—N-(azepan-3-yl)-5-((1-isopropyl-1H-pyrazol-4-yl)ethynyl)-3-ureidothiophene-2-carboxamide trifluoroacetate] the same measures were 0.216 µM and 0.004 µM.
Consider `COCCn1cc(C#Cc2cc(NC(N)=O)c(C(=O)N[C@H]3CCCCNC3)s2)cn1` [Example 45, (S)—N-(azepan-3-yl)-5-((1-(2-methoxyethyl)-1H-pyrazol-4-yl)ethynyl)-3-ureidothiophene-2-carboxamide trifluoroacetate], for which the GI50 amounted to 0.841 µM in series [1] and 0.019 µM in series [2].
As for `NC(=O)Nc1cc(C#Cc2cnn(C3CCOCC3)c2)sc1C(=O)N[C@H]1CCCCNC1` [Example 46, (S)—N-(azepan-3-yl)-5-((1-(tetrahydro-2H-pyran-4-yl)-1H-pyrazol-4-yl)ethynyl)-3-ureidothiophene-2-carboxamide trifluoroacetate], the GI50 in series [1] is 0.042 µM; in series [2] it was 0.003 µM.
For `CS(=O)(=O)N1CCC(n2cc(C#Cc3cc(NC(N)=O)c(C(=O)N[C@H]4CCCCNC4)s3)cn2)CC1` [Example 47, (S)—N-(azepan-3-yl)-5-((1-(1-(methylsulfonyl)piperidin-4-yl)-1H-pyrazol-4-yl)ethynyl)-3-ureidothiophene-2-carboxamide trifluoroacetate] the same measures were 0.533 µM and 0.04 µM.
For `NC(=O)Nc1cc(C#Cc2ccsc2)sc1C(=O)N[C@H]1CCCCNC1` [Example 48, (S)—N-(azepan-3-yl)-5-(thiophen-3-ylethynyl)-3-ureidothiophene-2-carboxamide trifluoroacetate] the same measures were 0.067 µM and 0.004 µM.
`CC(=O)N1CCC(n2cc(C#Cc3cc(NC(N)=O)c(C(=O)N[C@H]4CCCCNC4)s3)cn2)CC1` [Example 49]: the GI50 in series [1] was 0.437 µM; in series [2], 0.031 µM.
For `NC(=O)Nc1cc(C#Cc2cccc(F)c2)sc1C(=O)N[C@H]1CCCCNC1` [Example 50, (S)—N-(azepan-3-yl)-5-((3-fluorophenyl)ethynyl)-3-ureidothiophene-2-carboxamide] the same measures were 0.228 µM and 0.006 µM.
The like results for `Cn1cc(CCc2cc(NC(N)=O)c(C(=O)N[C@H]3CCCCNC3)s2)cn1` [Example 52, (S)—N-(azepan-3-yl)-5-(2-(1-methyl-1H-pyrazol-4-yl)ethyl)-3-ureidothiophene-2-carboxamide trifluoroacetate] were, in that order, > 33 µM and > 4 µM.
For `NC(=O)Nc1cc(CCc2cccc(F)c2)sc1C(=O)N[C@H]1CCCNC1` [Example 53] the same measures were 1.61 µM and 0.149 µM.
As to `NC(=O)Nc1cc(CCc2cccc(F)c2)sc1C(=O)N[C@H]1CCCCNC1` [Example 54, (S)—N-(azepan-3-yl)-5-(3-fluorophenethyl)-3-ureidothiophene-2-carboxamide], the GI50 in series [1] came to 11.5 µM; in series [2], 1.02 µM.
